Test results: patent publication US20250002914A1, “NUCLEIC ACID AGENTS FOR TREATMENT OF NON-SMALL-CELL LUNG CANCER” (UNIVERSITY COLLEGE DUBLIN, priority 2021, published 2025)

Columns and labels:
Format in all cases: cell-based
A549 cells = assay: Cisplatin dose response, A549
Experimental: (§1) Cisplatin screen. Optimal cisplatin working concentrations were established via dose response and cell doubling time. In the dose response, 3,000 A549 and H460 cells were plated in 96-well plates and treated with a range of cisplatin concentrations. After 72 h, CellTiter-Glo 2.0 (Promega, cat. no. G9242) was added to the media (1:1), and luminescence was recorded. For the cell doubling time, 1M cells were plated in 10 cm plates. Different cisplatin concentrations were added at indicated concentrations, and living cells counted every 2-3 days up to 14 days. Cisplatin survival screen: 48M and 96M cells were plated at TO and treated with 6.5 μM and 25 μM of Cisplatin for A549 cells and 2 μM and 10 μM for H460 cells, corresponding to IC30 and IC80, respectively. Cell pellets were collected after 14 and 21 days. The death screen was carried out as follows: 144M cells were seeded and treated with cisplatin at 2 μM and 1 μM (IC20) for A549 and H460, respectively. Every 24 h, for five days, floating (dead) cells were collected and pooled together for gDNA extraction.

Tier II genes = assay: Tier II genes' expression following cisplatin treatment
H460 cells = assay: Cisplatin dose response, H460
Experimental: as §1

Which results are given for `N.N.[Cl][Pt][Cl]` [Cisplatin, cisplatin]?
IC20 (A549 cells): 2 µM; IC30 (A549 cells): 6.5 µM; IC80 (A549 cells): 25 µM; Tier II genes' expression (Tier II genes): upregulation; IC20 (H460 cells): 1 µM; IC30 (H460 cells): 2 µM; IC80 (H460 cells): 10 µM
